Among the data in ChEMBL document CHEMBL1151462, “Mosaic tetracycline resistance genes and their flanking regions in Bifidobacterium thermophilum and Lactobacillus johnsonii” (2008) are MIC values, retold here.

Converted amounts (≈) assume the structure as drawn.

Holding throughout (format): functional
The test system of experiment [1] is Bifidobacterium thermophilum. As to the kind of experiment: Antibacterial activity against Bifidobacterium thermophilum B0256 by broth microdilution method. A general note: Broth dilution looks for growth in wells or tubes with falling amounts of substance.
Experiment [2] has as its system Bifidobacterium thermophilum. The experiment in a line: Antibacterial activity against Bifidobacterium thermophilum B0253 by broth microdilution method.
The test system of another experiment is Lactobacillus johnsonii. As to the kind of experiment: Antibacterial activity against Lactobacillus johnsonii L0077 by Etest.
Experiment [3] deals with Bifidobacterium thermophilum. The experiment in a line: Antibacterial activity against Bifidobacterium thermophilum B0242 by broth microdilution method.
Experiment [4] has as its system Bifidobacterium thermophilum. The experiment in a line: Antibacterial activity against Bifidobacterium thermophilum B0219 by broth microdilution method.
Experiment [5] has as its system Bifidobacterium thermophilum. As to the kind of experiment: Antibacterial activity against Bifidobacterium thermophilum B0241 by broth microdilution method.

In general, MIC refers to the least concentration at which growth counts as inhibited. As for `CN(C)[C@@H]1C(O)=C(C(N)=O)C(=O)[C@@]2(O)C(O)=C3C(=O)c4c(O)cccc4[C@@](C)(O)[C@H]3C[C@@H]12` [TETRACYCLINE], the MIC is 128 µg/mL (≈ 288 µM) in experiment [1]; 128 µg/mL (≈ 288 µM) in experiment [2]; more than 256 µg/mL against Lactobacillus johnsonii; 256 µg/mL (≈ 576 µM) in experiment [3]; 128 µg/mL (≈ 288 µM) in experiment [4]; 128 µg/mL (≈ 288 µM) in experiment [5].
